Patent US20260224541A1, “PHARMACEUTICAL FORMULATION, PREPARATION METHOD THEREFOR, AND TABLET COMPOSITION” (JEIL PHARMACEUTICAL CO., LTD., priority 2023, published 2026)

Experiment: oral administration: blood concentration of the citrate salt vs free base Compound 1
Assay type: in vivo
Conditions: administered orally

For `Cc1cccc(C)c1CNc1cc(C(=O)N2CCC2)cn2c(C)c(C)nc12.O=C(O)CC(O)(CC(=O)O)C(=O)O` [citrate salt of Compound 1, azetidin-1-yl{8-[(2,6-dimethylbenzyl)amino]-2,3-dimethylimidazo[1,2-a]pyridin-6-yl}methanone citrate salt], the “AUC compared to the free base Compound 1” value was “at least 5 fold”, the “Cmax compared to the free base Compound 1” value was “at least 11 fold” and the “time to reach peak blood concentrations compared to the free base Compound 1” value was “faster”.
